These results are taken from patent US12391962B2, “Targeting peptide to deliver a compound to oocytes” (THE PENN STATE RESEARCH FOUNDATION, priority 2017, dated 2025).

One test has as its system B. tabaci white gene. As to the kind of experiment: Knockout of the B. tabaci white gene by ReMOT Control (adult female injection). The test is classed as in vivo, Bemisia tabaci. Particulars: BtKV as the targeting peptide. As to the method:
The females were injected and placed on a piece of soybean leaflet in a petri dish with a moist paper towel wrapped around the stem and another paper towel on the bottom plate to prolong the life of the leaflet. Water and liquid fertilizer were added as needed. Females were removed from the leaflet 2 weeks post injection. The petri dishes were incubated at 28° C., 16L/8D cycle, in a humidified Heratherm IMH750-S reach-in chamber, and the progeny of injected females screened visually for altered eye color in nymphs or adults using an Olympus SZX7 stereomicroscope. Mutations in insects showing altered eye color were confirmed by PCR using PHIRE Tissue Direct PCR Master Mix (Thermo Fischer Scientific), the amplicon was cloned into pJET1.2, and clones were submitted for Sanger sequencing.
For proof of principle gene editing experiments, we chose the white gene, which is an ABC transporter protein responsible for transport of ommochrome pigments into the eyes.

Another test has as its system B. tabaci ovaries. Description: Validation of the BtKV ovary targeting ligand (epifluorescence of dissected ovaries). Type of test: in vivo, Bemisia tabaci. Particulars: ovaries dissected 24 hours post-injection; vs PBS-injected controls. As to the method: For initial experiments B. tabaci adults of unknown age and mating status were aspirated from the colony cage into 2-dram screw cap vials, placed in ice to anesthetize the insects, sexed, and transferred to a standard plain glass slide with double-sided tape on a chill table. For later experiments we established a synchronous colony so that we could control for the age of injected insects (see below). For localization of BtKV fusion protein into the embryos, female B. tabaci were injected in the abdomen with BtKV-mCherry fusion protein (3 mg/ml) or PBS control using quartz capillary needles. Samples were collected 24 hours post injection and ovaries dissected onto a concavity microscope slide with a glass coverslip and imaged by epifluorescence microscopy.
We therefore designed a new targeting peptide suitable for this insect species based on its endogenous vitellogenin protein (“BtKV”; […] (SEQ ID NO: 30)) (see methods). B. tabaci oocyte development is asynchronous with stage I, II, III, and IV at 11 days post eclosion or older^19 where oocytes are always developing. Developmental phase II oocytes have the highest amount of vitellogenin uptake via endocytosis and nutrient cord^19. After injection of BtKV-mCherry into reproductive adult B. tabaci females, ovaries were dissected after 24 hours and visualized for red fluorescence.

Another test deals with Aedes aegypti ovaries. As to the kind of experiment: Transduction of mCherry into ovaries with vitellogenin-derived targeting peptide. The note with it: injection into adult females. The test is classed as in vivo.
Test [1] relates to Ixodes scapularis ovaries. Described as above. The test is classed as in vivo. Particulars: injection into adult females. The text has this:
(§1) Several targeting peptides, including […] (Bemisia tabaci, SEQ ID NO: 26), […] (Bombus impatiens, SEQ ID NO: 27), […] (Ixodes scapularis, SEQ ID NO: 28), or […] (Danio rerio, SEQ ID NO: 29), were further validated. The DNA encoding these peptides were synthesized, fused to the fluorescent reporter proteins GFP or mCherry (with a HIS tag to aid in purification), and cloned into pET28. The plasmids were then transformed into E. coli BL21 (NEB) and Rosetta2™ (DE3) pLysS competent cells, with the transformation being verified by […].
(§2) To induce expression of the recombinant protein, a preculture was grown overnight at 30° C. in 50 mL of Luria Broth (LB) supplemented with […] chloramphenicol and […] kanamycin. After 12 hours, 10 mL of preculture was transferred to 900 mL of LB supplemented with the same antibiotics, incubated at 37° C. until OD=0.6. Then 0.05 mM isopropyl β-D-1-thiogalactopyranoside (IPTG) was added and the culture incubated overnight at 30° C.
(§3) Cells were spun down at >10,000×g for 15 min, resuspended in 50 mL lysis buffer (20 mM Tris-HCl, pH 8.0, 300 mM NaCl, 20 mM imidazole), placed at −80° C. overnight and incubated with lysozyme (1 mg/ml) and 100 ppm of […] (PMSF) for 30 min at 4° C. The suspension was sonicated 5 times at 60% duty 5 seconds pulse 5 seconds rest (two aliquots each 20 mL), centrifuged at 13,000×g for 30 min, the supernatant removed and incubated with Ni-NTA beads (Qiagen) with rotation at 4° C. overnight. Beads were washed 3 times with 10 mL lysis buffer and eluted with 1 mL elution buffer (20 mM Tris-HCl, pH 8.0, 300 mM NaCl, 250 mM imidazole) 10 times. Eluted protein was dialyzed in a Slide-A-Lyzer dialysis cassette (Thermo Fisher) for two hours in dialysis buffer (50 mM Tris-HCl, pH 8.0, 300 mM KCl, 0.1 mM EDTA, 0.5 mM PMSF) and buffer changed every 2 hours, for 2 times, then left overnight at 4° C. with gentle agitation in fresh buffer, Protein purity was visualized by SDS-PAGE and concentration estimated using Bradford assay. […]

The next test relates to Bombus impatiens ovaries. The test is described as above. Type of test: in vivo. The note with it: injection into adult females.
Source text: as §1, §2, §3

The test system of the next test is Bemisia tabaci ovaries. The test is described as above. The test is classed as in vivo. Particulars: injection into adult females.
Source text: as §1, §2, §3

In the next test the test system is Danio rerio ovaries. As to the kind of experiment: Transduction of EGFP into ovaries with vitellogenin-derived targeting peptide. Type of test: in vivo. Particulars: injection into adult females.
Source text: as §1, §2
Cells were spun down at >10,000×g for 15 min, resuspended in 50 mL lysis buffer (20 mM Tris-HCl, pH 8.0, 300 mM NaCl, 20 mM imidazole), placed at −80° C. overnight and incubated with lysozyme (1 mg/ml) and 100 ppm of […] (PMSF) for 30 min at 4° C. […]

Consider “KPYGVYKTMEDSV (listed as Bemisia tabaci) [BtKV]”, for which, in the test on B. tabaci white gene, the “independent replicate injection experiments from which white-eye nymphal offspring were recovered” value is 7 of 14. Besides, the “fluorescent cargo in oocytes” value with B. tabaci ovaries is on record as “visible in dissected mature oocytes”.
Regarding QVTKTQNF, in the test on Aedes aegypti ovaries, the “transduction of mCherry protein into ovaries” value was “transduced into developing vitellogenic eggs”.
Consider NFTKTKNY, for which, in test [1], the “transduction of mCherry protein into ovaries” value is recorded as “transduced into developing vitellogenic eggs”.
Consider RKSKNFDK, for which, in the test on Bombus impatiens ovaries, the “transduction of mCherry protein into ovaries” value was “transduced into developing vitellogenic eggs”.
Turning to DIVKTTNY, the “transduction of mCherry protein into ovaries” value in the test with Bemisia tabaci ovaries is “transduced into developing vitellogenic eggs”.
For IVTKSKDL, the “transduction of EGFP protein into ovaries” value in the test on Danio rerio ovaries was “transduced into developing vitellogenic eggs”.
